Laboratory results published in US5094945A, “Inhibition resistant 5-enolpyruvyl-3-phosphoshikimate synthase, production and use” (priority 1988, dated 1992).

Tests used:
[1] = target: T1, EPSP synthase from the glyphosate-resistant strain of S. typhimurium (Salmonella typhimurium, UniProt P07637, P101S); assay: EPSP synthase activity with inhibitor, bacterial mutant enzyme; assay type: biochemical; conditions: pH 7, read-out: EPSP Synthase Activity, % control
T1 construct: EPSP synthase activities from the glyphosate-resistant strain of S. typhimurium; endogenous in cells; host or cells: glyphosate-resistant strain of S. typhimurium
T1 sequence (P07637 whole entry P101S): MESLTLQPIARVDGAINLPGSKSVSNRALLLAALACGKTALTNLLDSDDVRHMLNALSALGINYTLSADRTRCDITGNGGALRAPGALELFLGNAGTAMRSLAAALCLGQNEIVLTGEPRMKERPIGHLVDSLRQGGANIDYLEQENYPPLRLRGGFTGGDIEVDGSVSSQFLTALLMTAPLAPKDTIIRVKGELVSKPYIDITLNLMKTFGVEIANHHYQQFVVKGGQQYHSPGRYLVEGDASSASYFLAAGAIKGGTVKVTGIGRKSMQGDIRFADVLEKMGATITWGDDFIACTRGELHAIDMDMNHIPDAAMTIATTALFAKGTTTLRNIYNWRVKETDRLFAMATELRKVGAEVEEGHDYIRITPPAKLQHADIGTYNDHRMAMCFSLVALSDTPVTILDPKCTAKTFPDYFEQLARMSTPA
Experimental: (§1) In the next study, the effect of glyphosate and antiserum to bacterial EPSP synthase on EPSP synthase activities from the glyphosate-resistant strain of S. typhimurium, from the wild-type turnip gall and from ocs-aroA turnip gall was studied. Enzyme activity was assayed fluorometrically in the forward direction as described by Boocock and Coggins, supra.

[2] = target: T2, 5-enolpyruvyl-3-phosphoshikimate synthase from glyphosate-resistant mutant CT7 (Salmonella typhimurium, UniProt P07637, P101S); assay: ES-3-P synthase assay (release of inorganic phosphate), enzyme preparation of glyphosate-resistant mutant CT7; assay type: biochemical, S. typhimurium
T2 construct: endogenous in cells; host or cells: S. typhimurium strain CT7, French press homogenate, protamine sulfate precipitate
T2 sequence (P07637 whole entry P101S): as above
Experimental: (§2) S. typhimurium strains CT7 and STK1 were grown with aeration for 24 hours at 37° C. in M9 broth. Cells were harvested by centrifugation at 4° C., washed twice with M9 salts, resuspended in 0.01 M Tris-HC1 (pH8.2) and sheared with a French press at 20,000 psi. The homogenate was centrifuged at 16,000 g for 40 min and the supernatant treated with 2% protamine sulfate (1.0 ml of 2% protamine sulfate for every 35 mg of protein). The precipitate was removed by centrifugation at 18,000 xg for 35 min, resuspended and used for enzyme assays. Activity of the enzyme was determined by measuring the rate of release of inorganic phosphate (Heinonen and Lahti, Anal. Biochem. (1981) 113:313-317).
(§3) A typical assay mixture contained 150 μmole maleic acid buffer (pH5.6), 2.88 μmole phosphoenolpyruvate, 4.08 μmole 3-phosphoshikimate and the enzyme fraction in a total volume of 1.5 ml. The reaction was started by addition of the enzyme after pre-incubation of the assay mixture at 37° C. for 5 min. Aliquots were taken at timed intervals and mixed immediately with the reagents for phosphate analysis. The low pH of the reagent (1.25 N H2 SO4) terminated enzyme activity.
(§4) Resistance to glyphosate mediated by a mutation(s) at the aroA locus could result from altered regulation leading to overproduction of 5-enolpyruvyl-3phosphoshikimate synthase or to a structural alteration of the enzyme. […]

[3] = test system: S. typhimurium strain CTF3; assay: Spot test for glyphosate resistance; assay type: cell-based
Experimental: (§5) Glyphosate was added to M9 after autoclaving. For selection experiments, a commercial solution of glyphosate was used. Resistant mutants were isolated by plating bacterial suspensions in M9 broth or on M9 solid medium supplemented with varying amounts of glyphosate. The level of resistance achieved by the mutants was scored by three types of tests: a spot test, consisting of toothpicking a small colony from a non-selective to a selective medium; a streak test, consisting of streaking cells on a selective plate to obtain single colonies; and growth curves, to determine the kinetics of growth in liquid medium supplemented with glyphosate.

[4] = test system: EPSP synthase from ocs-aroA transformed turnip gall; assay: EPSP synthase activity with inhibitor, ocs-aroA transformed turnip gall extract; assay type: biochemical; conditions: pH 7.0, PEP 500 μM, shik 3P 500 μM
Experimental: as §1

[5] = target: T3, EPSP synthase purified from the mutant glyphosate-resistant strain (Salmonella typhimurium, UniProt P07637, P101S); assay: Fluorimetric EPSP synthase assay, forward direction, purified mutant enzyme; assay type: biochemical, S. typhimurium
T3 construct: ES-3-P synthase purified from wild-type S. typhimurium and from the mutant glyphosate-resistant strain; endogenous in cells; host or cells: mutant glyphosate-resistant S. typhimurium strain (purified)
T3 sequence (P07637 whole entry P101S): as above
Experimental: (§6) In the next study, a comparison of the kinetic parameters at pH 7.0 of ES-3-P synthase purified from wild-type S. typhimurium and from the mutant glyphosate-resistant strain was made. Enzyme activity was assayed fluorometrically in the forward direction as described by Boocock and Coggins, FEBS Letters (1983) 154:127-133.

[6] = test system: aroA E. coli strains with pPMG11; assay: Glyphosate resistance of aroA E. coli carrying pPMG11; assay type: cell-based; conditions: 5.5 Kb BglII/HindIII Salmonella DNA segment (pPMG11)
Experimental: as §5
To subclone the aroA-Pmg^r gene, plasmid pPMG1 was digested with the restriction endonuclease BglII. […] Plasmid pPMG1 was digested to completion with BglII, ligated in vitro and the DNA transformed into strain LC2 selecting for aroA complementation. Clones were screened and plasmids containing the 10 Kb BglII fragment in both orientations relative to the vector pVK100 were identified. Plasmids pPMG5 and pPMG6 complemented aroA E. coli strains and conferred high levels of glyphosate resistance. Further subcloning was accomplished by digesting plasmid pPMG5 with BglII and HindIII and ligating in vitro. Strain LC2 was transformed and colonies which were aroA+ and kanamycin sensitive were selected. […] This plasmid was designated pPMG11.

[7] = test system: S. typhimurium Pmg^r mutants (fifteen mutants, incl. CT7); assay: Streak test on M9 medium with glyphosate; assay type: cell-based; conditions: streaked on M9 medium
Experimental: as §5

[8] = test system: S. typhimurium strain TA831; assay: Colony formation on solid M9 medium with glyphosate; assay type: cell-based; conditions: Salmonella enterica, read-out: glyphosate concentration at which no colonies form
Experimental: as §5

[9] = target: T4, 5-enolpyruvyl-3-phosphoshikimate synthase from wild type strain STK1 (Salmonella typhimurium, UniProt P07637); assay: ES-3-P synthase assay (release of inorganic phosphate), enzyme preparation of wild type strain STK1; assay type: biochemical, S. typhimurium
T4 construct: endogenous in cells; host or cells: S. typhimurium strain STK1, French press homogenate, protamine sulfate precipitate
T4 sequence (P07637 whole entry): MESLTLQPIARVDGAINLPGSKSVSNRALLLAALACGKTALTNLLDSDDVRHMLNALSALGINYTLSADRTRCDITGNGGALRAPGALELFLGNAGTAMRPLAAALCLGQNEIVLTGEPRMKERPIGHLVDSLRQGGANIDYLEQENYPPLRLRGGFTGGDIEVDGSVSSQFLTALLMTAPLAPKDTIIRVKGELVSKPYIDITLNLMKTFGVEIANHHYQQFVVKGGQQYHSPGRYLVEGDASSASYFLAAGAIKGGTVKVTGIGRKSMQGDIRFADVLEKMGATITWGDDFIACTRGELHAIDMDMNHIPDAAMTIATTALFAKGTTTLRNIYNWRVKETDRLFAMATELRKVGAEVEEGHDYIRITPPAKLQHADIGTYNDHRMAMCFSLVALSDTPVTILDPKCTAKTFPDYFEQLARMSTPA
Experimental: as §2, §3
(§7) Resistance to glyphosate mediated by a mutation(s) at the aroA locus could result from altered regulation leading to overproduction of 5-enolpyruvyl-3phosphoshikimate synthase or to a structural alteration of the enzyme. To distinguish between these two hypotheses in vitro enzyme preparations were assayed from Salmonella strains STK1 and CT7 which are the wild type and mutant strain respectively. 5-Enolpyruvyl-3-phosphoshikimate synthase activities from wild type and glyphosate-resistant mutants differed by Km for 3-phosphoshikimate, Kd for glyphosate, and at high concentration of 3-phosphoshikimate, by specific activity.

wild type E. coli = assay: Growth kinetics with glyphosate, wild type E. coli; assay type: cell-based
Experimental: as §5
(§8) The growth kinetics of both S. typhimurium and E. coli strains with wild type and mutant aroA locus were investigated.

[10] = test system: aroA E. coli strain LC3 harboring pPMG1; assay: Growth kinetics with glyphosate, LC3 harboring pPMG1; assay type: cell-based; conditions: 2 μg/ml of glyphosate
Experimental: as §5, §8

S. typhimurium STK1 = assay: Growth in minimal medium supplemented with glyphosate, wild type; assay type: cell-based; conditions: Salmonella enterica, minimal medium with 70 μg/ml glyphosate
Experimental: as §5
(§9) The above assays were performed on enzyme preparations obtained from cells grown in minimal medium. To determine whether the enzyme of the glyphosate resistance mutant was differentially regulated during glyphosate induced stress, STK1, the wild type, and CT7 the mutant, were grown in minimal medium supplemented, respectively, with 70 μg/ml and 1000 μg/ml of glyphosate. These conditions give approximately 20-30% growth inhibition. The specific activity of preparations from cells grown in the presence of glyphosate was 10% higher than that found in preparations from cells grown without glyphosate.

[11] = target: T5, EPSP synthase purified from wild type S. typhimurium (Salmonella typhimurium, UniProt P07637); assay: Fluorimetric EPSP synthase assay, forward direction, purified wild type enzyme; assay type: biochemical; conditions: pH 7.0, 500 μM shik 3-P, read-out: Ki for glyphosate
T5 construct: ES-3-P synthase purified from wild-type S. typhimurium; endogenous in cells; host or cells: wild-type S. typhimurium (purified)
T5 sequence (P07637 whole entry): as above
Experimental: as §6

S. typhimurium CT7 = assay: Growth in minimal medium supplemented with glyphosate, mutant; assay type: cell-based; conditions: Salmonella enterica, read-out: growth inhibition
Experimental: as §5, §9

[12] = test system: EPSP synthase from wild type turnip gall; assay: EPSP synthase activity with inhibitor, wild type turnip gall extract; assay type: biochemical; conditions: pH 7.0, PEP 500 μM, shik 3P 500 μM
Experimental: as §1

C=C(OP(=O)(O)O)C(=O)O [13] = assay: Fluorimetric EPSP synthase assay, forward direction, purified wild type enzyme; assay type: biochemical, S. typhimurium; conditions: other: wild type, pH 7.0, 500 μM shik 3-P
Experimental: as §6

[14] = test system: O=C(O)C1=C[C@@H](OP(=O)(O)O)[C@@H](O)[C@H](O)C1; assay: as above; assay type: biochemical, S. typhimurium; conditions: other: wild type, pH 7.0, 500 μM PEP
Experimental: as §6

[15] = test system: O=C(O)C1=C[C@@H](OP(=O)(O)O)[C@@H](O)[C@H](O)C1; assay: ES-3-P synthase assay (release of inorganic phosphate), enzyme preparation of glyphosate-resistant mutant CT7; assay type: biochemical, S. typhimurium; conditions: other: CT7 mutant enzyme preparation; phosphoenolpyruvate 2.5 × 10^-1 M; 37.0 °C
Experimental: as §2, §3, §4

[16] = test system: O=C(O)C1=C[C@@H](OP(=O)(O)O)[C@@H](O)[C@H](O)C1; assay: ES-3-P synthase assay (release of inorganic phosphate), enzyme preparation of wild type strain STK1; assay type: biochemical, S. typhimurium; conditions: other: STK1 wild type enzyme preparation; phosphoenolpyruvate 2.5 × 10^-1 M; 37.0 °C
Experimental: as §2, §3, §7

C=C(OP(=O)(O)O)C(=O)O [17] = assay: Fluorimetric EPSP synthase assay, forward direction, purified mutant enzyme; assay type: biochemical, S. typhimurium; conditions: other: mutant, pH 7.0, 500 μM shik 3-P
Experimental: as §6

[18] = test system: O=C(O)C1=C[C@@H](OP(=O)(O)O)[C@@H](O)[C@H](O)C1; assay: as above; assay type: biochemical, S. typhimurium; conditions: other: mutant, pH 7.0, 500 μM PEP
Experimental: as §6

Work on `O=C(O)CNCP(=O)(O)O` [glyphosate, N-phosphonomethyl glycine] yielded a remaining activity at 100 µM [1] of 35%, a remaining activity at 500 µM [1] of 9% and a Kd [2] of 190 µM. For the same compound, the “glyphosate concentration to which the strain was resistant” value [3] was 350 µg/mL, the “EPSP Synthase Activity, % control” value ([4]; glyphosate 100 μM) was 29 % control and the “EPSP Synthase Activity, % control” value ([4]; glyphosate 500 μM) was 9 % control. The Ki [5] was 5 µM, the “level of glyphosate resistance conferred” value [6] was “approx. 2 mg/ml” and the “glyphosate concentration on which colonies formed in 48 hours” value [7] was 2 mg/mL. It also gave an MIC [8] of over 200 µg/mL, an activation at 70 µg/mL ([9]; STK1 grown with 70 μg/ml glyphosate, read-out: increase of ES-3-P synthase specific activity, cells grown with vs without glyphosate) of 10% and a Kd ([9]; STK1 wild type enzyme preparation, read-out: Kd glyphosate) of 22 µM. For the same compound, the inhibition at 100 µg/mL (wild type E. coli; Escherichia coli, 100 μg/ml glyphosate, read-out: inhibition of growth rate) was 40%, the growth (wild type E. coli; one mg/ml glyphosate) was “no growth was observed” and the growth inhibition [10] was “not significantly inhibited”. The inhibition at 70 µg/mL (S. typhimurium STK1) was 20 to 30%, the Ki [11] was 1.5 µM and the inhibition at 1000 µg/mL (S. typhimurium CT7) was 20 to 30%. The “EPSP Synthase Activity, % control” value ([12]; glyphosate 100 μM) was 8 % control and the “EPSP Synthase Activity, % control” value ([12]; glyphosate 500 μM) was 2 % control.

Compound “EPSP synthase purified from wild type S. typhimurium (Salmonella enterica subsp. enterica serovar Typhimurium str. LT2)” has a Km (C=C(OP(=O)(O)O)C(=O)O [13]) of 30 µM and a Km [14] of 2.6 µM.

In the case of “5-enolpyruvyl-3-phosphoshikimate synthase from glyphosate-resistant mutant CT7 (Salmonella enterica subsp. enterica serovar Typhimurium str. LT2; P101S)”, the Km [15] is reported as 2800 µM.

“5-enolpyruvyl-3-phosphoshikimate synthase from wild type strain STK1 (Salmonella enterica subsp. enterica serovar Typhimurium str. LT2)” gave a Km [16] of 340 µM.

Work on “EPSP synthase purified from the mutant glyphosate-resistant strain (Salmonella enterica subsp. enterica serovar Typhimurium str. LT2; P101S)” yielded a Km (C=C(OP(=O)(O)O)C(=O)O [17]) of 22 µM and a Km [18] of 1.6 µM.
